The values that follow are results of earlier work, collected in patent US20200289439A1, “Process of Manufacturing a Stable, Ready To Use Infusion Bag For An Oxidation Sensitive Formulation” (InnoPharma Licensing, LLC, priority 2013, published 2020).

For data set [1] the following is noted: intravenous; therapeutic dosing, up to 4,000 mg daily.
For data set [2] the following is noted: six adult volunteers.

On to `CC(=O)Nc1ccc(O)cc1` [Acetaminophen, N-(4-hydroxyphenyl)acetamide], for which, in data set [1], the hepatotoxicity entry is given as “rarely associated with hepatotoxicity”. Also, the “mean intravenous Cmax compared to oral route” value in data set [2] (intravenous vs oral) is “nearly two”. In addition, the “mean intravenous Cmax compared to rectal route” value in data set [2] (intravenous vs rectal) is “four fold higher”.
